Assay results as given in PMC3321071 (Bioorganic & medicinal chemistry letters, 2012).
pIC50: −log10 of the molar value.

Tested on: gp41-mediated cell–cell fusion
Assay: cell–cell fusion
Format: cell-based, HIV-1
Settings: read-out: IC50 in CCF assay

Row | Substance | pIC50
1 | H2N-Trp-[Trp]-Leu-OH | 5.30
2 | H2N-Asn-[Trp]-Trp-OH | 5.10 to 5.22
3 | H2N-TyrMe-[Trp]-Trp-OH | 5.10 to 5.22
